Test results published in the kinase profiling compilation of Christmann-Franck et al. (2016).

Key:
Assay in all cases: KINOMEscan competition binding
Conditions in all cases: compound 1.0 µM
MAPK11 (human) = MAPK11 (human) (UniProt Q15759)
RPS6KA5 KD2 (human) = RPS6KA5 KD2 (human) (UniProt O75582)
DYRK1A (human) = DYRK1A (human) (UniProt Q13627)
TSSK1B (human) = TSSK1B (human) (UniProt Q9BXA7)
MAPK13 (human) = MAPK13 (human) (UniProt O15264)
CDK4 CCND3 (human) = CDK4 CCND3 (human) (UniProt P11802+P30281)
DMPK (human) = DMPK (human) (UniProt Q09013)
RPS6KA2 KD1 (human) = RPS6KA2 KD1 (human) (UniProt Q15349)
DYRK2 (human) = DYRK2 (human) (UniProt Q92630)
MARK3 (human) = MARK3 (human) (UniProt P27448)
STK36 (human) = STK36 (human) (UniProt Q9NRP7)
CAMKK1 (human) = CAMKK1 (human) (UniProt Q8N5S9)
SIK1 (human) = SIK1 (human) (UniProt P57059)
EPHB6 (human) = EPHB6 (human) (UniProt O15197)
LYN (human) = LYN (human) (UniProt P07948)
CDK9 (human) = CDK9 (human) (UniProt P50750)
CLK3 (human) = CLK3 (human) (UniProt P49761)
SNRK (human) = SNRK (human) (UniProt Q9NRH2)
PIK3C2B (human) = PIK3C2B (human) (UniProt O00750)
CASK (human) = CASK (human) (UniProt O14936)
CSNK2A1 (human) = CSNK2A1 (human) (UniProt P68400)
PRKACA (human) = PRKACA (human) (UniProt P17612)
NUAK1 (human) = NUAK1 (human) (UniProt O60285)
ULK1 (human) = ULK1 (human) (UniProt O75385)
CaMK1 (human) = CaMK1 (human) (UniProt Q14012)
PRKG1 (human) = PRKG1 (human) (UniProt Q13976)
RPS6KA3 KD1 (human) = RPS6KA3 KD1 (human) (UniProt P51812)
PAK4 (human) = PAK4 (human) (UniProt O96013)
EPHB1 (human) = EPHB1 (human) (UniProt P54762)
PLK3 (human) = PLK3 (human) (UniProt Q9H4B4)
ALK (human) = ALK (human) (UniProt Q9UM73)
BRAF (human) = BRAF (human) (UniProt P15056)
STK24 (human) = STK24 (human) (UniProt Q9Y6E0)
CDK14 (human) = CDK14 (human) (UniProt O94921)
MAPK14 (human) = MAPK14 (human) (UniProt Q16539)
AKT1 (human) = AKT1 (human) (UniProt P31749)
CSNK1A1L (human) = CSNK1A1L (human) (UniProt Q8N752)
NIM1 (human) = NIM1 (human) (UniProt Q8IY84)
[1] = tested on: MET (human), P08581 [Y1235D]
MAP3K7 (human) = MAP3K7 (human) (UniProt O43318)
CHEK2 (human) = CHEK2 (human) (UniProt O96017)
MAPK10 (human) = MAPK10 (human) (UniProt P53779)

Chain of CHEK2 (human) (O96017 whole entry, looked up): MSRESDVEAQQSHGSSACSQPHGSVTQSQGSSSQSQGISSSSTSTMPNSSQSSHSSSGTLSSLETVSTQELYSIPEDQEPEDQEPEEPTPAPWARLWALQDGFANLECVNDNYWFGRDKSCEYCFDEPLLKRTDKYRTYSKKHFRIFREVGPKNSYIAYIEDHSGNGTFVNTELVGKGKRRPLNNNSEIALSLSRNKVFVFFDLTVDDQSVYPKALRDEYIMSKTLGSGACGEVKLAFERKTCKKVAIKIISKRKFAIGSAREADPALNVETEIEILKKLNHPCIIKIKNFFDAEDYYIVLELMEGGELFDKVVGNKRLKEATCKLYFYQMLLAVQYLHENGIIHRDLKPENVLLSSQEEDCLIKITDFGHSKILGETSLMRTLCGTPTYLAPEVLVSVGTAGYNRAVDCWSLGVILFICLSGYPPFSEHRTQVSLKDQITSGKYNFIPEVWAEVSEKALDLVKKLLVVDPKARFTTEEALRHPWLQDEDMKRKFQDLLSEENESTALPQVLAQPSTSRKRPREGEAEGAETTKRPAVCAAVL
Chain of CDK14 (human) (O94921 whole entry, looked up): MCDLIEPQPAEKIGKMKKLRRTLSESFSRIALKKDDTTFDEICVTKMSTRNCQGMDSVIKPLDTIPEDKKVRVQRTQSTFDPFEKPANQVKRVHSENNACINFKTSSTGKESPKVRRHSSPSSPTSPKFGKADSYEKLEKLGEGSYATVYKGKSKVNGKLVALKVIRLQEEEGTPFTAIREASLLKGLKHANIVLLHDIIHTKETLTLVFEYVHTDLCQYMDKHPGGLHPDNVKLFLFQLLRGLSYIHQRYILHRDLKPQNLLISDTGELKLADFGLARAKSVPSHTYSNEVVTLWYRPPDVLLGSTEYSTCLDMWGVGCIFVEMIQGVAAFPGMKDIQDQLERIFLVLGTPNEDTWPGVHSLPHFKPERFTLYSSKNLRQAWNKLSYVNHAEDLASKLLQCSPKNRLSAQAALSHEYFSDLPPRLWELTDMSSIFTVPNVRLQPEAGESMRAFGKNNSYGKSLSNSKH
Chain of DYRK2 (human) (Q92630 whole entry, looked up): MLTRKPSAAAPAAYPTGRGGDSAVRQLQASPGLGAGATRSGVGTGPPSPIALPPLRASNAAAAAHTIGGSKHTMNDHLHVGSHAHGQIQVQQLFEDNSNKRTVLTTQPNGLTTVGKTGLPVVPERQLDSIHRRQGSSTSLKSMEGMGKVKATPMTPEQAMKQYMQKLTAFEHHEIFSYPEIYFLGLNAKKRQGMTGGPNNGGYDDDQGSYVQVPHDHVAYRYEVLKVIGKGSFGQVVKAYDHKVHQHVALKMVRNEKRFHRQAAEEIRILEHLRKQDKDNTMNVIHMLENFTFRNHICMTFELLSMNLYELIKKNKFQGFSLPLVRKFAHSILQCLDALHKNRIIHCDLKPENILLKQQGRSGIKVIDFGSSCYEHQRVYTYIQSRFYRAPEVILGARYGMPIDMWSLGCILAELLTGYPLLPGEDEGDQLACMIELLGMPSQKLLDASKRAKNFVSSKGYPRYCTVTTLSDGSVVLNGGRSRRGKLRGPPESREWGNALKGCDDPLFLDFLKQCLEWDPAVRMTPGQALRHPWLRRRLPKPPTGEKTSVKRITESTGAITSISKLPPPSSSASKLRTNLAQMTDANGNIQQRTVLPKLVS
Chain of ALK (human) (Q9UM73 whole entry, looked up): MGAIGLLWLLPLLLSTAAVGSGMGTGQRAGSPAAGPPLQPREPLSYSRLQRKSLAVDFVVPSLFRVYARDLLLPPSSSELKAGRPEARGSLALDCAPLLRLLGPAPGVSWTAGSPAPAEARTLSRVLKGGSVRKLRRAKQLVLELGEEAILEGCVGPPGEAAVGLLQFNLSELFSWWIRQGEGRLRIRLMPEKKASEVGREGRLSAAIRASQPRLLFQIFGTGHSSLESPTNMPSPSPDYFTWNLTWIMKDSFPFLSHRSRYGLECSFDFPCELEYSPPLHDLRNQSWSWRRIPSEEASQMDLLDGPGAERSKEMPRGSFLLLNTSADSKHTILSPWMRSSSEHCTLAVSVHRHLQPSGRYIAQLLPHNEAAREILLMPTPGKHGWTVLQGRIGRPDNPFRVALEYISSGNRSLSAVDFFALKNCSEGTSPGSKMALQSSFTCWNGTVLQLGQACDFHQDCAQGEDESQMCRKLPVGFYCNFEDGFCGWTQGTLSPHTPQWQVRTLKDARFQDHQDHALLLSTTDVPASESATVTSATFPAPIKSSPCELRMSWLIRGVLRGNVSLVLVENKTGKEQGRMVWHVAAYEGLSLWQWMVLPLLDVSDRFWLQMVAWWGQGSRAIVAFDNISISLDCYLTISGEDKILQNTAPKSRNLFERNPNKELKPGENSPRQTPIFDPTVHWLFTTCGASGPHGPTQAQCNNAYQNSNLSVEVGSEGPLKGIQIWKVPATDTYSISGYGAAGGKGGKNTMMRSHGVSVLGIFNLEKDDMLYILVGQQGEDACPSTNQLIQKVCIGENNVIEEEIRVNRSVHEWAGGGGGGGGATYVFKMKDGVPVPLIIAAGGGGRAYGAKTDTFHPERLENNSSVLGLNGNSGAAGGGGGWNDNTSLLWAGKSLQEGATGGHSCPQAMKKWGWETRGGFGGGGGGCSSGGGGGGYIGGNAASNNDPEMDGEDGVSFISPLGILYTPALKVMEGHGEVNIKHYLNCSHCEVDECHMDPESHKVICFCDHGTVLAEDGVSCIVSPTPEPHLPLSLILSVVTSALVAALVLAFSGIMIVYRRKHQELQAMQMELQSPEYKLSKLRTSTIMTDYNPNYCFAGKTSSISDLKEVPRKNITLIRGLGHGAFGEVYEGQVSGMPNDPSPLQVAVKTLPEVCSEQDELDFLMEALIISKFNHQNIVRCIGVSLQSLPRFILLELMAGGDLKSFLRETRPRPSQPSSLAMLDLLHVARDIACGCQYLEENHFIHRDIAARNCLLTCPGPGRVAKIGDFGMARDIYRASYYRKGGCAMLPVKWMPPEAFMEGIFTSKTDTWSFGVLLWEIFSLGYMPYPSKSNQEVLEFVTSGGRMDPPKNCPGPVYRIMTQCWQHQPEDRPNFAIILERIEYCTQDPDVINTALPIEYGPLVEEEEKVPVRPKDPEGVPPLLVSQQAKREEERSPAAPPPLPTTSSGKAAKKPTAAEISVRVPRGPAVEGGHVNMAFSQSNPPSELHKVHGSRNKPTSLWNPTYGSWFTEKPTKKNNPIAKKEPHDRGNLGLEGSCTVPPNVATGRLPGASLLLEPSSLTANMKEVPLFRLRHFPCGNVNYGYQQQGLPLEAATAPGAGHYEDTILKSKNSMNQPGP
Chain of MAP3K7 (human) (O43318 whole entry, looked up): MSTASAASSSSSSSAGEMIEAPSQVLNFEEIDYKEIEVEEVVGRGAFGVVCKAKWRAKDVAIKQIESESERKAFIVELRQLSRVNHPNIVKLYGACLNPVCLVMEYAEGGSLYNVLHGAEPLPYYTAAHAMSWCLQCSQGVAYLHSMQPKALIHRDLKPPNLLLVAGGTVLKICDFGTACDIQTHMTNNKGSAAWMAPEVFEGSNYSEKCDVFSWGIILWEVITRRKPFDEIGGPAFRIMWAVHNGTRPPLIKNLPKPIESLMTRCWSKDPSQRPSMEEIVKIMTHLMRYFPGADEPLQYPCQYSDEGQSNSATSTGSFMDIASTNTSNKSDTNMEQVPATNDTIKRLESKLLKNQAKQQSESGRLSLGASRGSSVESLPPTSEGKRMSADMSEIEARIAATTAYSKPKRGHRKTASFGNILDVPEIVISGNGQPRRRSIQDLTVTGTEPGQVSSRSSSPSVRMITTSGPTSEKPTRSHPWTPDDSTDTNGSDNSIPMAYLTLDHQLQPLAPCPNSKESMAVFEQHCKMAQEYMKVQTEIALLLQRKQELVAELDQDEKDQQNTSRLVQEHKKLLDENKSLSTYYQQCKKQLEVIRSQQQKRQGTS
Chain of BRAF (human) (P15056 whole entry, looked up): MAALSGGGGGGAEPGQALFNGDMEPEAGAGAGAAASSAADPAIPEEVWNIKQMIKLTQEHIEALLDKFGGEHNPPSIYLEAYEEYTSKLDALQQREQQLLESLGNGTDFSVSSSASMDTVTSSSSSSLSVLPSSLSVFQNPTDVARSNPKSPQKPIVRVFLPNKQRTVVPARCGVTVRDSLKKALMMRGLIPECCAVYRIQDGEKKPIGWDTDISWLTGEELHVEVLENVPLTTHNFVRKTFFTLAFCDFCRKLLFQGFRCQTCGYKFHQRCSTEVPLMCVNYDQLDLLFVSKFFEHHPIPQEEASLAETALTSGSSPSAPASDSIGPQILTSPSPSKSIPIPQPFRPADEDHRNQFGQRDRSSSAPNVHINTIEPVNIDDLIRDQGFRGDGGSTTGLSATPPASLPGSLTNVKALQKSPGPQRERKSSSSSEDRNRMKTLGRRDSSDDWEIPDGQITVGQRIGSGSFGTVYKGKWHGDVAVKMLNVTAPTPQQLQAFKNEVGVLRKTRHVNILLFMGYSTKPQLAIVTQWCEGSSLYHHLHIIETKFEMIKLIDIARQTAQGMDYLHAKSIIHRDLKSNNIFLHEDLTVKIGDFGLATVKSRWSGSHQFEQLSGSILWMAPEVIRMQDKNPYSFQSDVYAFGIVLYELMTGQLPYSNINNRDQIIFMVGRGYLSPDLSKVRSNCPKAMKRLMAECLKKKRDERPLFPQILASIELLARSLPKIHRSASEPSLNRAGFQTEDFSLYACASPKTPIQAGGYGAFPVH
Chain of STK24 (human) (Q9Y6E0 whole entry, looked up): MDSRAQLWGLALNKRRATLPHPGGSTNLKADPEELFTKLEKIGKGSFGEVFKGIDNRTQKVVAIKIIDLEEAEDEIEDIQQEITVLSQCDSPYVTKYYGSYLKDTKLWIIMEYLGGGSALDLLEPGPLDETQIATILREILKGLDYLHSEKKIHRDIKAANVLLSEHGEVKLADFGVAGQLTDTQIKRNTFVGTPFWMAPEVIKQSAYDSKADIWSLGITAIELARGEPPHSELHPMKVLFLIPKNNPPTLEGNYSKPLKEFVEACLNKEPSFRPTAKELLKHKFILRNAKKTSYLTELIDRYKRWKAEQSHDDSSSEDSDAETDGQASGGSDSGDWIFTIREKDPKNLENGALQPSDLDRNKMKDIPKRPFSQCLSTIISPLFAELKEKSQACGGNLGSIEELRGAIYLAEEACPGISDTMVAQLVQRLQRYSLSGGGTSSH

CN(C)C/C=C/C(=O)Nc1cccc(C(=O)Nc2ccc(Nc3nccc(-c4c(-c5ccccc5)nn5ccccc45)n3)cc2)c1
kinase still bound, per cent of control (MAPK11 (human)): 6.6%
kinase still bound, per cent of control (RPS6KA5 KD2 (human)): 97%
kinase still bound, per cent of control (DYRK1A (human)): 90%
kinase still bound, per cent of control (TSSK1B (human)): 86%
kinase still bound, per cent of control (MAPK13 (human)): 100%
kinase still bound, per cent of control (CDK4 CCND3 (human)): 81%
kinase still bound, per cent of control (DMPK (human)): 59%
kinase still bound, per cent of control (RPS6KA2 KD1 (human)): 86%
kinase still bound, per cent of control (DYRK2 (human)): 100%
kinase still bound, per cent of control (MARK3 (human)): 75%
kinase still bound, per cent of control (STK36 (human)): 2.2%
kinase still bound, per cent of control (CAMKK1 (human)): 100%
kinase still bound, per cent of control (SIK1 (human)): 29%
kinase still bound, per cent of control (EPHB6 (human)): 9.4%
kinase still bound, per cent of control (LYN (human)): 58%
kinase still bound, per cent of control (CDK9 (human)): 100%
kinase still bound, per cent of control (CLK3 (human)): 100%
kinase still bound, per cent of control (SNRK (human)): 100%
kinase still bound, per cent of control (PIK3C2B (human)): 100%
kinase still bound, per cent of control (CASK (human)): 52%
kinase still bound, per cent of control (CSNK2A1 (human)): 74%
kinase still bound, per cent of control (PRKACA (human)): 99%
kinase still bound, per cent of control (NUAK1 (human)): 83%
kinase still bound, per cent of control (ULK1 (human)): 87%
kinase still bound, per cent of control (CaMK1 (human)): 100%
kinase still bound, per cent of control (PRKG1 (human)): 90%
kinase still bound, per cent of control (RPS6KA3 KD1 (human)): 50%
kinase still bound, per cent of control (PAK4 (human)): 91%
kinase still bound, per cent of control (EPHB1 (human)): 84%
kinase still bound, per cent of control (PLK3 (human)): 100%
kinase still bound, per cent of control (ALK (human)): 100%
kinase still bound, per cent of control (BRAF (human)): 43%
kinase still bound, per cent of control (STK24 (human)): 88%
kinase still bound, per cent of control (CDK14 (human)): 100%
kinase still bound, per cent of control (MAPK14 (human)): 2.1%
kinase still bound, per cent of control (AKT1 (human)): 100%
kinase still bound, per cent of control (CSNK1A1L (human)): 5.5%
kinase still bound, per cent of control (NIM1 (human)): 100%
kinase still bound, per cent of control [1]: 59%
kinase still bound, per cent of control (MAP3K7 (human)): 47%
kinase still bound, per cent of control (CHEK2 (human)): 100%
kinase still bound, per cent of control (MAPK10 (human)): 0%
